Values quoted from earlier work in the CATMoS acute toxicity set (Mansouri et al. 2021).
Several values for one entry are separate records, joined by “and”; a condition that tells them apart may be missing. Equal values may be shown once. Where a SMILES comes first, the peptide text is derived from it. Bridges are numbered along the chain shown (N, C = ends). [ ]: non-standard residue; d: D form. The star is where a group is joined. Octanoyl(6-Me) = CCC(C)CCCCC(=O)*; Dab = NCC[CH](N)C(=O)O

Experiment: rat acute oral toxicity
Details: in vivo

Compound	LD50
Nc1ccc([N+](=O)[O-])c(Cl)n1	1780 mg/kg
CCOC(C1=NCCCN1)c1ccccc1 (configuration not stated)	1540 mg/kg
O=C1CCc2cc(CCCCN3CCN(c4ccccc4Cl)CC3)ccc2N1	500 mg/kg
CN1CCN(CCCCOc2ccccc2C=Cc2ccccc2)CC1	2300 mg/kg
COP(=O)(OC)Oc1ccc(S(C)(=O)=O)c(C)c1	30 mg/kg
C=CC[C@@H]1C=C(C)C[C@H](C)C[C@H](OC)[C@H]2O[C@@](O)(C(=O)C(=O)N3CCCC[C@H]3C(=O)O[C@H](/C(C)=C/[C@@H]3CC[C@@H](O)[C@H](OC)C3)[C@H](C)[C@@H](O)CC1=O)[C@H](C)C[C@@H]2OC	134 mg/kg
N[C@@H](CCC(=O)O)C(=O)O	14700 mg/kg
CC(C)OC(=O)c1cncc(C(=O)OC(C)C)c1	5230 mg/kg
NC(CCC(=O)O)C(=O)O (racemic)	10000 mg/kg
CCN(CC)C(=S)Sc1nc2ccccc2s1	6000 mg/kg
CON=Cc1ccc(OCC(O)(Cn2cncn2)C(C)(C)C)cc1 (configuration not stated)	921 mg/kg
C=Cc1ccncc1	100 mg/kg
CC1CNC(C)CN1 (configuration not stated)	3160 mg/kg
S=C(S)NCCNC(=S)S	1850 mg/kg and 2850 mg/kg
CN(CO)C(=S)S	590 mg/kg
Nc1cccc(Cl)c1	256 mg/kg
CCCCCCCCCCCCCCCC[n+]1ccccc1	200 mg/kg and 475 mg/kg
CC1CN1P(=O)(N1CC1C)N1CC1C (configuration not stated)	136 mg/kg
COP(=S)(OC)C(C(=O)O)c1ccccc1 (configuration not stated)	4500 mg/kg
CC(C)c1ccc(C=O)cc1	1390 mg/kg
C[C@H](NCCc1ccc(O)cc1)[C@H](O)c1ccc(O)cc1	1840 mg/kg
NC1=NCC2c3ccccc3Cc3ccccc3N12 (configuration not stated)	192 mg/kg
c1ccc2c(OCCN3CCCC3)ccnc2c1	280 mg/kg
C=CC(=O)OCCC#N	180 mg/kg
O=P(O)(O)CN(CC(O)CN(CP(=O)(O)O)CP(=O)(O)O)CP(=O)(O)O	4300 mg/kg

Compound	LD50
CCOC(=S)SSC(=S)OCC	480 mg/kg
CN=C(O)Oc1cccc2c1OC(C)C2 (configuration not stated)	43 mg/kg
CC/C=C1/OC(=O)c2ccccc21	1650 mg/kg
Nc1ccc2[nH]c3ccc(N)cc3c2c1	1040 mg/kg
CCCCOc1ccc(C(CN(C)C)C(C)CC)cc1Cl (configuration not stated)	1050 mg/kg
O=C(O)COc1ccccc1	1500 mg/kg
Cn1cc[nH]c1=S	2250 mg/kg
C=COP(=O)(OCC)OC(CCl)c1cc(Cl)c(Cl)cc1Cl (configuration not stated)	1100 mg/kg
CCCC(Cn1cncn1)c1ccc(Cl)cc1Cl (configuration not stated)	2120 mg/kg
O=C(CF)NC(=O)Nc1ccccc1	25 mg/kg
C=C(Cl)C(=O)Nc1ccc(OC)cc1	82 mg/kg
COc1ccc([N+](=O)[O-])cc1CNCCO	30 mg/kg
CCCn1cnc2c1c(=O)n(CCCCC(C)=O)c(=O)n2C	940 mg/kg
Cc1ncoc1C#N	735 mg/kg
OCC=CCO	1250 mg/kg
CC[N+]1(C)[C@@H]2C[C@@H](OC(=O)[C@H](CO)c3ccccc3)C[C@H]1[C@@H]1O[C@@H]12 (some centres not stated)	2250 mg/kg
FC(F)(F)C(F)(F)C(F)(F)C(F)(F)C(F)(F)C(F)(F)CCI	3870 mg/kg
CCC(C)(O)c1ccccc1 (configuration not stated)	1400 mg/kg
CC(C)OC(C)C	8470 mg/kg
O=NN1CCCCCCCC1	566 mg/kg
CCOP(=S)(OCC)Oc1cc(C)nc(N(C)C)n1	125 mg/kg
O=C(C(Cl)Cl)C(Cl)(Cl)Cl	200 mg/kg
C1CN(CCOCCN2CCOCC2)CCO1	2020 mg/kg
CCOc1ccc(C(CN(C)C)C(C)CC)cc1Cl (configuration not stated)	451 mg/kg
COc1cc(C)c2c(Oc3cccc(C(F)(F)F)c3)c(OC)cc(NC(C)CCCN)c2n1 (configuration not stated)	416 mg/kg

Compound	LD50
CN(C)c1ccc(O)cc1	689 mg/kg
CC(C=CC=C(C)C=CC(=O)C1(C)CC(O)CC1(C)C)=CC=CC=C(C)C=CC=C(C)C=CC1=C(C)CC(O)CC1(C)C (configuration not stated)	11200 mg/kg
CCNC(=O)/C=C/c1cccc(Br)c1	4440 mg/kg
CC(C)(C)c1cc(C(=O)c2cccs2)cc(C(C)(C)C)c1O	1620 mg/kg
C1CCc2c(OCCN3CCOCC3)n[nH]c2C1	1600 mg/kg
CSCC[C@H](N)C(=O)O	36000 mg/kg
CCC1(CC)COC(=O)NC1=O	71 mg/kg
NCCN1CCOCC1	3000 mg/kg
CC(C)(C)c1cc(C(=O)O)cc(C(C)(C)C)c1O	1410 mg/kg
Cc1ccc(CN(C)N=O)cc1	400 mg/kg
CCCCOCCOCCOC(=O)CCCCC(=O)OCCOCCOCCCC	6000 mg/kg
CCOP(=S)(OCC)SCc1cccc([N+](=O)[O-])c1	250 mg/kg
CCCCC(CC)CO[Si](O)(O)O (configuration not stated)	19700 mg/kg
CCOCCC#N	3200 mg/kg
CCn1nc(C(=O)O)c(=O)c2cc3c(cc21)OCO3	3610 mg/kg
CCOP(=S)(OCC)SCS(=O)CC (configuration not stated)	2 mg/kg
C=CC(=O)OCCN(CC)CC	770 mg/kg
Cc1onc(-c2c(Cl)cccc2Cl)c1C(=O)N[C@@H]1C(=O)N2[C@@H]1SC(C)(C)[C@@H]2C(=O)O	3580 mg/kg
CNCCC#N	2260 mg/kg
CC(C)N(Cc1ccccc1)C(=O)C(C)(C)C	6000 mg/kg
CC(=O)OCc1ccc(C(C)C)cc1	1450 mg/kg
O=C/C=C/O	824 mg/kg
CCNc1nc(NC(C)(C)C)nc(SC)n1	2040 mg/kg
O=C1C(O)=C(CC=C(Cl)Cl)C(=O)c2ccccc21	281 mg/kg
CCN(CC)CCOC(=O)Cc1ccc2c(c1)OCc1ccccc1C2=O	150 mg/kg

Compound	LD50
CC(C)CCCC1CCC(C)(C(=O)NCC(=O)O)CC1 (configuration not stated)	10300 mg/kg
COc1ccc(C)cc1N	1450 mg/kg
O=C1c2ccccc2C(=O)C1c1c(Cl)cccc1Cl	470 mg/kg
CN1C(=O)CCc2cc(C(=O)CCN3CCN(c4ccccc4)CC3)ccc21	500 mg/kg
Cc1cc(C(=O)Nc2ccccc2)c(C)o1	64 mg/kg
Nc1cc(Cl)ccc1Cl	1600 mg/kg
CCC1(CCl)COC1	570 mg/kg
Cc1cc(Cl)cc(O)c1O	1410 mg/kg
CC(C)C(=O)OCC(C)(C)C(O)C(C)C (configuration not stated)	3200 mg/kg
CC12CCC(=O)CC1CCC1C2CCC2(C)C(C(=O)COC(=O)CCC(=O)O)CCC12 (configuration not stated)	700 mg/kg
c1ccc(-c2ccc(CCOc3ncnc4ccccc34)cc2)cc1	1150 mg/kg
CC1(C(=O)O)CC=CCC1 (configuration not stated)	2140 mg/kg
NCCOC(=O)c1ccccc1	9270 mg/kg
OCC(O)CN1CCN(c2ccccc2)CC1 (configuration not stated)	750 mg/kg
CC1CCC(=O)O1 (configuration not stated)	8800 mg/kg
C[Si](C)(C)CC(=O)O	3000 mg/kg
C=CC(=O)OCCCCCCCCCC	6460 mg/kg
CC(C)CCON=O	505 mg/kg
CCCC(C)C1(CC)C(=O)N=C(S)NC1=O (configuration not stated)	117 mg/kg
CCc1nc(N)nc(N)c1-c1ccccc1	126 mg/kg
CCC(C)CCCCC(=O)NC(CCN)C(=O)NC(C(=O)NC(CCN)C(=O)NC1CCNC(=O)C(C(C)O)NC(=O)C(CCN)NC(=O)C(CCN)NC(=O)C(C(C)O)NC(=O)C(CC(C)C)NC(=O)C(CCN)NC1=O)C(C)O (configuration not stated) ({Octanoyl(6-Me)}-[Dab]T[Dab][Dab][Dab]LT[Dab][Dab]T; lactam 4-C; configuration not given here)	910 mg/kg
NCc1ccc(S(N)(=O)=O)cc1	9210 mg/kg
CC(C)CNC(=O)OCC(O)C1COc2ccccc2O1 (configuration not stated)	1500 mg/kg
CCOC(=O)COc1ccc2c(C)c(CCN(CC)CC)c(=O)oc2c1	8000 mg/kg
OC[C@@H](O)[C@@H](O)[C@H](O)[C@H](O)CO	13500 mg/kg

Compound	LD50
O=S(=O)(O)c1ccccc1C=Cc1ccc(-c2ccc(C=Cc3ccccc3S(=O)(=O)O)cc2)cc1	5580 mg/kg
CCC(O)(COC(N)=O)c1ccccc1 (configuration not stated)	607 mg/kg
O=NN1CC=CCO1	900 mg/kg
CCCN=C(NCCC)C(OCC)c1ccccc1 (configuration not stated)	95 mg/kg
O=c1[nH]c(=O)c2ccccc2o1	750 mg/kg
c1cncc(C2CCCCN2)c1 (configuration not stated)	210 mg/kg and 235 mg/kg
Clc1cc2c(c(Cl)c1Cl)Oc1cc(Cl)c(Cl)c(Cl)c1O2	0.887 mg/kg
CCCCCCOC(=O)CC(C(=O)OCCCCCC)S(=O)(=O)O (configuration not stated)	1750 mg/kg
Oc1ccc(C(O)CCNCCCSc2ccccc2)cc1 (configuration not stated)	650 mg/kg
Cn1cc(CCc2cc[n+](CCC[N+](C)(C)C)cc2)c2ccccc21	200 mg/kg
CS(=O)(=O)c1nnc(C(F)(F)F)s1	312 mg/kg
Nc1cnn(-c2ccccc2)c(=O)c1Br	8500 mg/kg
CCOP(=O)(OCC)Oc1ccc2c(C)c(Cl)c(=O)oc2c1	10 mg/kg
SCc1ccccc1	493 mg/kg
ClCCN(Cc1ccccc1)Cc1ccccc1	2400 mg/kg
CC(C)c1s[nH]c2nc(C(C)(C)C)nc(=O)c1-2	10200 mg/kg
CC(C/N=C/c1ccccc1O)/N=C/c1ccccc1O (configuration not stated)	4560 mg/kg
CCCCCCCCCCCCNC(N)=S	1000 mg/kg
OCC1CCCO1 (configuration not stated)	1600 mg/kg
OCc1ccc(OCCn2ccnc2)cc1	4860 mg/kg
O[C@@H]([C@H](O)[C@H](O)CBr)[C@H](O)CBr	1500 mg/kg
COc1ccc2c(c1)c1c3n2CCN(C)C3=NCC1	1400 mg/kg
Nc1c2c(nc3ccccc13)CCCC2	70 mg/kg
CC(C)NCC(O)COc1cccc2c1OCC(O)C2 (configuration not stated)	1840 mg/kg
CC(=O)OCC1=C(C(=O)O)N2C(=O)[C@@H](NC(=O)CSc3ccncc3)[C@H]2SC1	16400 mg/kg

Compound	LD50
CCCCOCCOC(=O)COc1cc(Cl)c(Cl)cc1Cl	500 mg/kg
CC(CN1CCN(CCOCCO)CC1)CN1c2ccccc2Sc2ccc(Cl)cc21 (configuration not stated)	400 mg/kg
O=C(Nc1ccc([N+](=O)[O-])cc1)OCc1cccnc1	14 mg/kg
CCCCCNCCCCC	270 mg/kg
CCCCc1c(C)nc(N(C)C)nc1O	2350 mg/kg
c1ccc2c(NC3=NCCS3)cccc2c1	50 mg/kg
CC=Cc1cc(OC)c(OC)cc1OC	1010 mg/kg
CCCCCCCCCCCCOC(=O)c1ccccc1	34500 mg/kg
CN(C)CCN(Cc1cccs1)c1ccccn1	200 mg/kg
O=S(=O)(Oc1ccc(Cl)cc1Cl)c1ccccc1	1000 mg/kg
CNC(=O)ON=C1CSCCS1	15 mg/kg
CS(=O)(=O)c1ccc(CN(CCO)C(=O)C(Cl)Cl)cc1	12500 mg/kg
COP(=S)(OC)SCCSC	75 mg/kg
CC[Si](OC(C)=O)(OC(C)=O)OC(C)=O	1460 mg/kg
CCC(C)(O)Cc1ccccc1 (configuration not stated)	4000 mg/kg
CC(=O)Nc1ccc(OC(=O)c2ccccc2OC(C)=O)cc1	3500 mg/kg
C[N+]1(C)CCc2cc(Cl)ccc21	447 mg/kg
Cc1cccc(C(C)C)c1	2970 mg/kg
CC=CC(=O)OCC	3000 mg/kg
C=CCOc1ccccc1C(=O)N(C)C	740 mg/kg
Cc1cccc(N2CCN(CC=Cc3ccc4c(c3)CCC(=O)N4Cc3ccccc3)CC2)c1	500 mg/kg
CCOC(=O)[C@H](CCc1ccccc1)N[C@@H](C)C(=O)N1Cc2ccccc2C[C@H]1C(=O)O	3540 mg/kg
